Results: the supplement of paper PMC10307832

Columns and labels:
Experiment in all cases: relative viability (nuclei count vs DMSO), 5 days (fraction); higher = more cells survive
Bosutinib = compound: COc1cc(Nc2c(C#N)cnc3cc(OCCCN4CCN(C)CC4)c(OC)cc23)c(Cl)cc1Cl [Bosutinib]
In short: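 Five library-drug doses, separated by factors of √10, were pinned into 1536-well plates holding lung cancer cell lines after an overnight stay at 37 °C. Cells were fixed, permeabilised and Hoechst-stained in one step after 5 days without medium change, then imaged at 4×. Viability compares treated-well with vehicle-well nuclei, counted in MetaXpress, as a median across plates. Passing plates had control CV below 25% and at least one doubling.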

Bosutinib + Crizotinib = compound: COc1cc(Nc2c(C#N)cnc3cc(OCCCN4CCN(C)CC4)c(OC)cc23)c(Cl)cc1Cl [Bosutinib] + C[C@@H](Oc1cc(-c2cnn(C3CCNCC3)c2)cnc1N)c1c(Cl)ccc(F)c1Cl [Crizotinib] (partner 1 µM)
In short: (§1)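 Values are medians from duplicate plates. Each reflects relative viability, defined as the nuclei count of treated wells over that of vehicle wells. Lung cancer cell lines in 1536-well plates were pin-tool dosed one day after seeding with one drug alone or with a fixed anchor-drug dose plus five library-drug doses (not always all listed) in √10 steps, then fixed, stained and imaged at 4× after 5 days.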

Bosutinib + Alpelisib = compound: COc1cc(Nc2c(C#N)cnc3cc(OCCCN4CCN(C)CC4)c(OC)cc23)c(Cl)cc1Cl [Bosutinib] + Cc1nc(NC(=O)N2CCC[C@H]2C(N)=O)sc1-c1ccnc(C(C)(C)C(F)(F)F)c1 [Alpelisib] (partner 2 µM)
In short: as §1

Bosutinib + Dasatinib = compound: COc1cc(Nc2c(C#N)cnc3cc(OCCCN4CCN(C)CC4)c(OC)cc23)c(Cl)cc1Cl [Bosutinib] + Cc1nc(Nc2ncc(C(=O)Nc3c(C)cccc3Cl)s2)cc(N2CCN(CCO)CC2)n1 [Dasatinib] (partner 0.075 µM)
In short: as §1

Bosutinib + Olaparib = compound: COc1cc(Nc2c(C#N)cnc3cc(OCCCN4CCN(C)CC4)c(OC)cc23)c(Cl)cc1Cl [Bosutinib] + O=C(c1cc(Cc2n[nH]c(=O)c3ccccc23)ccc1F)N1CCN(C(=O)C2CC2)CC1 [Olaparib] (partner 8 µM)
In short: as §1

| Cell Line | relative viability (Bosutinib; 0.01 µM) | relative viability (Bosutinib; 0.03162 µM) | relative viability (Bosutinib; 0.1 µM) | relative viability (Bosutinib; 1 µM) | relative viability (Bosutinib + Crizotinib; first compound 0.01 µM) | relative viability (Bosutinib + Crizotinib; first compound 0.03162 µM) | relative viability (Bosutinib + Crizotinib; first compound 0.1 µM) | relative viability (Bosutinib + Crizotinib; first compound 1 µM) | relative viability (Bosutinib + Alpelisib; first compound 0.01 µM) | relative viability (Bosutinib + Alpelisib; first compound 0.03162 µM) | relative viability (Bosutinib + Alpelisib; first compound 0.1 µM) | relative viability (Bosutinib + Alpelisib; first compound 1 µM) | relative viability (Bosutinib + Dasatinib; first compound 0.01 µM) | relative viability (Bosutinib + Dasatinib; first compound 0.03162 µM) | relative viability (Bosutinib + Dasatinib; first compound 0.1 µM) | relative viability (Bosutinib + Dasatinib; first compound 1 µM) | relative viability (Bosutinib + Olaparib; first compound 0.01 µM) | relative viability (Bosutinib + Olaparib; first compound 0.03162 µM) | relative viability (Bosutinib + Olaparib; first compound 0.1 µM) | relative viability (Bosutinib + Olaparib; first compound 1 µM) |
| --- | --- | --- | --- | --- | --- | --- | --- | --- | --- | --- | --- | --- | --- | --- | --- | --- | --- | --- | --- | --- |
| 201T | 1 | 0.991 | 1.02 | 0.906 | 0.982 | 1.06 | 1.1 | 0.945 | 1 | 1.02 | 1.01 | 0.909 | 0.612 | 0.571 | 0.57 | 0.544 | 0.829 | 0.884 | 0.888 | 0.76 |
| A549 | 1 | 1.04 | 1.01 | 0.939 | 0.761 | 0.66 | 0.724 | 1.01 | 0.731 | 0.78 | 0.734 | 0.621 |  |  |  |  | 0.52 | 0.447 | 0.357 | 0.286 |
| A-427 | 0.979 | 1.04 | 1.03 | 0.926 | 0.867 | 0.954 | 0.877 | 0.61 | 1.03 | 1.11 | 1.03 | 0.978 | 0.767 | 0.843 | 0.665 | 0.732 | 0.73 | 0.764 | 0.742 | 0.68 |
| ABC-1 | 0.976 | 0.99 | 0.854 | 0.88 | 1.01 | 1.04 | 1.21 | 0.708 | 0.938 | 0.944 | 0.897 | 0.731 | 0.548 | 0.605 | 0.65 | 0.488 | 0.531 | 0.964 | 0.743 | 0.46 |
| BEN | 0.952 | 0.984 | 1.08 | 0.765 | 0.836 | 0.857 | 0.795 | 0.519 | 0.986 | 1.04 | 0.888 | 0.669 | 0.315 | 0.339 | 0.344 | 0.368 | 1.04 | 1.05 | 1.04 | 0.735 |
| CAL-12T | 1.06 | 0.96 | 0.95 | 0.914 | 0.543 | 0.7 | 0.638 | 0.362 | 1.09 | 1.09 | 1.2 | 0.787 | 0.383 | 0.426 | 0.417 | 0.467 | 0.704 | 0.665 | 0.64 | 0.766 |
| COR-L23 | 1.05 | 0.972 | 1.07 | 1.03 | 0.663 | 0.589 | 0.571 | 0.749 | 0.803 | 0.799 | 0.747 | 0.836 | 0.551 | 0.537 | 0.501 | 0.619 | 0.341 | 0.353 | 0.348 | 0.309 |
| COR-L 105 | 0.974 | 0.861 | 0.914 | 0.735 | 0.938 | 0.798 | 0.617 | 0.507 | 0.869 | 1.27 | 0.871 | 0.565 | 0.383 | 0.363 | 0.397 | 0.353 | 0.677 | 0.743 | 0.844 | 0.603 |
| ChaGo-K-1 | 0.966 | 0.976 | 1.01 | 0.997 | 1.21 | 1.14 | 1.09 | 1.17 |  |  |  |  | 0.662 | 0.56 | 0.637 | 0.6 | 0.432 | 0.458 | 0.401 | 0.435 |
| EKVX | 0.927 | 0.971 | 0.952 | 0.85 | 0.895 | 0.753 | 1.01 | 0.481 | 0.894 | 0.89 | 0.847 | 0.476 | 0.549 | 0.505 | 0.611 | 0.491 | 0.925 | 0.86 | 0.876 | 0.628 |
| EMC-BAC-2 | 0.95 | 1.09 | 1.09 | 0.928 | 0.763 | 0.756 | 0.789 | 0.759 | 0.757 | 0.731 | 0.723 | 0.657 | 0.356 | 0.325 | 0.347 | 0.328 | 0.48 | 0.525 | 0.51 | 0.621 |
| EPLC-272H | 0.982 | 1.01 | 1.12 | 0.911 | 0.904 | 1.17 | 1.05 | 0.818 | 0.937 | 1.15 | 1.03 | 0.854 | 0.476 | 0.425 | 0.447 | 0.409 | 0.722 | 0.909 | 0.626 | 0.515 |
| H3255 | 0.931 | 0.978 | 0.995 | 0.594 | 0.901 | 0.855 | 0.853 | 0.354 | 0.686 | 0.743 | 0.669 | 0.198 | 0.369 | 0.381 | 0.364 | 0.288 | 0.568 | 0.56 | 0.598 | 0.421 |
| HARA | 1.07 | 1.02 | 0.993 | 0.791 | 1.14 | 0.955 | 0.995 | 0.642 | 0.842 | 0.817 | 0.874 | 0.502 | 0.303 | 0.296 | 0.304 | 0.385 | 0.896 | 0.825 | 0.761 | 0.515 |
| HCC-15 | 1.05 | 1.03 | 1.06 | 0.926 | 0.809 | 0.846 | 0.844 | 0.771 | 0.844 | 0.9 | 0.924 | 0.85 | 0.651 | 0.662 | 0.678 | 0.674 | 0.652 | 0.699 | 0.695 | 0.661 |
| HCC-44 | 0.99 | 1.02 | 1.02 | 1.01 | 0.809 | 0.782 | 0.764 | 0.755 | 0.749 | 0.877 | 0.761 | 0.772 |  |  |  |  | 0.981 | 0.923 | 0.978 | 1.04 |
